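Cultured in 96-well plates, cells were exposed to test compound for 48 hours across five concentrations. TGI is the concentration that stops growth completely.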
Assays:
Assay in all cases: DTP human tumour cell line panel, 48 h
BT-549 breast = system: BT-549 breast
CAKI-1 renal = system: CAKI-1 renal
COLO 205 colon = system: COLO 205 colon
HT29 colon = system: HT29 colon
KM12 colon = system: KM12 colon
MDA-N = system: MDA-N
NCI-H522 lung = system: NCI-H522 lung
NCI/ADR-RES ovarian = system: NCI/ADR-RES ovarian
OVCAR-3 ovarian = system: OVCAR-3 ovarian
OVCAR-5 ovarian = system: OVCAR-5 ovarian
SF-539 CNS = system: SF-539 CNS
SK-MEL-28 melanoma = system: SK-MEL-28 melanoma
SK-MEL-5 melanoma = system: SK-MEL-5 melanoma
SK-OV-3 ovarian = system: SK-OV-3 ovarian
SN12C renal = system: SN12C renal
SNB-75 CNS = system: SNB-75 CNS
UACC-257 melanoma = system: UACC-257 melanoma
EKVX NSCLC = system: EKVX NSCLC
HOP-92 NSCLC = system: HOP-92 NSCLC
LOX IMVI melanoma = system: LOX IMVI melanoma

Row | SMILES | TGI (BT-549 breast) [µM] | TGI (CAKI-1 renal) [µM] | TGI (COLO 205 colon) [µM] | TGI (HT29 colon) [µM] | TGI (KM12 colon) [µM] | TGI (MDA-N) [µM] | TGI (NCI-H522 lung) [µM] | TGI (NCI/ADR-RES ovarian) [µM] | TGI (OVCAR-3 ovarian) [µM] | TGI (OVCAR-5 ovarian) [µM] | TGI (SF-539 CNS) [µM] | TGI (SK-MEL-28 melanoma) [µM] | TGI (SK-MEL-5 melanoma) [µM] | TGI (SK-OV-3 ovarian) [µM] | TGI (SN12C renal) [µM] | TGI (SNB-75 CNS) [µM] | TGI (UACC-257 melanoma) [µM] | TGI (EKVX NSCLC) [µM] | TGI (HOP-92 NSCLC) [µM] | TGI (LOX IMVI melanoma) [µM]
1 | O=C(NCCNCCO)N/N=C/c1ccc([N+](=O)[O-])cc1 | > 100 | > 100 | > 100 | > 100 | > 100 | > 100 | > 100 | > 100 | > 100 | > 100 | > 100 | > 100 | > 100 | > 100 | > 100 | 98.5 | > 100 |  |  | 
2 | COc1ccc(NCC(=O)Nn2c(C)nc3ccc(S(=O)(=O)Nc4ccc(OC)cc4)cc3c2=O)cc1 | > 100 | > 100 | > 100 | > 100 | > 100 | > 100 | > 100 | > 100 | > 100 | > 100 | > 100 | > 100 |  | > 100 | > 100 | > 100 | > 100 | > 100 | > 100 | > 100
3 | O=C1N[C@@H]([C@H](CCCCCO)OC(=O)c2ccccc2)CO1 | > 100 | > 100 |  | > 100 | > 100 | > 100 |  | > 100 | > 100 | > 100 | > 100 | > 100 | > 100 | > 100 | > 100 | > 100 | > 100 | > 100 | > 100 | > 100
4 | Nc1ccc(S(=O)(=O)c2ccc(NC(=O)c3cccnc3)cc2)cc1 | > 100 | > 100 | > 100 | > 100 | > 100 | > 100 | > 100 | > 100 | > 100 | > 100 |  | > 100 | > 100 | > 100 | > 100 | > 100 | > 100 | > 100 | > 100 | > 100
5 | C1=NCCOCCN=Cc2ccccc2OCc2cccc(n2)COc2ccccc21 | 19.1 |  | > 25 | 10.9 | > 25 | 6.96 | > 25 | 13.4 | 9.01 | > 25 | 9.13 | > 25 |  | > 25 | 15.2 | 12.9 | 21.5 | > 25 | > 25 | 
6 | COC(=O)c1cc(-c2c[nH]cc2C(=O)OCc2ccccc2)cn1S(=O)(=O)c1ccc(C)cc1 | > 100 | > 100 | > 100 | > 100 | > 100 | > 100 | > 100 | > 100 | > 100 | > 100 | > 100 |  | > 100 | > 100 | > 100 | > 100 | > 100 | > 100 |  | > 100
7 | CSCC[C@H]1C(=O)N=C(N)N1C(=O)OCc1ccccc1 | 60.9 | 44.3 | 39.7 | > 100 | > 100 | > 100 | 46.5 | > 100 | > 100 | > 100 |  | 96.8 | > 100 |  | > 100 | > 100 | > 100 | > 100 |  | > 100
8 | CN(/N=C/c1cccs1)c1ccc([N+](=O)[O-])cc1[N+](=O)[O-] | > 100 | > 100 | > 100 | > 100 | > 100 | > 100 | > 100 | > 100 | > 100 |  | > 100 | > 100 | > 100 | > 100 | > 100 | > 100 | > 100 | > 100 |  | 
9 | Cc1ccc(C(=O)C#Cc2cn(C3CC(O)C(CO)O3)c(=O)[nH]c2=O)cc1 (centres undefined) | > 100 | > 100 | > 100 | > 100 | > 100 | > 100 | 23.9 | > 100 | 60 |  | > 100 | > 100 | > 100 | > 100 | > 100 | > 100 | > 100 | > 100 | 65.1 | > 100
10 | NCCCc1ccc2oc3ccccc3c2c1 | 37.2 | 29.7 | 32.8 | 26 |  | 29.6 | 40 | 46.3 | 31.5 | 26.2 | 36.9 | 32.9 | 28.5 | 31.3 | 31.9 | 30.6 | 32.1 |  | 43 | 39.9
11 | Cc1nnc2sc(-c3ccc(-c4ccccc4Cl)o3)nn12 | 60.3 | > 100 | > 100 | > 100 | > 100 | 40.6 | 78.4 | 52.8 | 84.7 | > 100 | 45.9 |  | 61.3 | > 100 | > 100 |  | > 100 | > 100 | > 100 | 53.2
12 | O=Cc1cc2c(o1)C(=O)c1ccccc1C2=O | 2.12 | 9.54 | 2.76 | 2.12 | 4.54 | 0.352 |  | 5.54 | 2.11 | 3.25 | 2.25 | 1.08 | 0.698 | 9.57 | 0.779 | 0.858 | 1.5 | 7.46 |  | 0.679
13 | CN(C)Cc1cc(N=Nc2ccccc2Cl)cc(CN(C)C)c1O | > 100 | > 100 | > 100 | > 100 | > 100 | 79.3 | 28.8 | > 100 | > 100 | > 100 | > 100 | 33.6 | 32 |  | > 100 | > 100 | 41.4 | > 100 | > 100 | 38.7

— PubChem BioAssay (NCI)
